# Test results taken from patent publication US9867786B2, “Stabilized compositions containing alkaline labile drugs” (AUXILIUM US HOLDINGS, LLC, priority 2006, dated 2018).
# Assay: Determination of drug stability: testosterone impurities/degradants in hot-melt extruded composition by HPLC
# Type: physicochemical
# Method: Testosterone and any other ingredients were added to the wet granulated excipient mixture prepared according to Example 1. The blend was extruded as a monolayer film using a having a barrel temperature of 135° C. The moisture content of the blend prior to extrusion was 3.1%. The HME composition is then analyzed by HPLC according to Example 4 to determine the amount of degradants present.
# Twenty doses were sampled from a HME composition at the beginning, middle and end of the extrusion run a formulation. Composites of 10 doses were analyzed in duplicate for impurities by HPLC at each time point. The weight percent for each degradant was determined. Specific degradants analyzed include: 6B-Hydroxy-testosterone, 4-Androsten-16-alpha-ol-3,17-dione, Epi-Testosterone and unidentified degradants. The HPLC method employed will vary according to the drug included in the HME composition. Such methods are found in HPLC in the Pharmaceutical Industry (edited by Godwin W. Fong, Stanley K. Lam, New York: M. Dekker, 1991) or HPLC Methods for Pharmaceutical Analysis (by George Lunn and Norman R. Schmuff. New York: John Wiley & Sons, 1997), the disclosures of which are hereby incorporated by reference.
# [1] = HME composition extruded at 135 ° C.
# [2] = HME composition extruded at 145 ° C.
# [3] = HME composition, granulation fluid Aqueous Ethanol
# [4] = HME composition, granulation fluid Water
structure (smiles),measurement,setting,value
C[C@]12CC[C@H]3[C@@H](CCC4=CC(=O)CC[C@@]43C)[C@@H]1CC[C@@H]2O [testosterone],Total Unknown Impurities (%),"HME composition (PolyOx, Poloxamer wet granulated with water, Carbopol) extruded at 135 ° C.",0.1%
same,Total Unknown Impurities (%),"HME composition (PolyOx, Poloxamer wet granulated with water, Carbopol) extruded at 145 ° C.",0.4%
same,"4-Androsten-16-alpha-ol-3,17-dione (%)",[1],"ND (ND denotes below the limit of quantitation using the HPLC method detailed herein. In this case, ND means less than 0.1% by wt.)"
same,6B-Hydroxy-testosterone (%),[1],"ND (ND denotes below the limit of quantitation using the HPLC method detailed herein. In this case, ND means less than 0.1% by wt.)"
same,Epi-Testosterone (%),[1],"ND (ND denotes below the limit of quantitation using the HPLC method detailed herein. In this case, ND means less than 0.1% by wt.)"
same,"4-Androsten-16-alpha-ol-3,17-dione (%)",[2],"ND (ND denotes below the limit of quantitation using the HPLC method detailed herein. In this case, ND means less than 0.1% by wt.)"
same,6B-Hydroxy-testosterone (%),[2],0.15%
same,Epi-Testosterone (%),[2],"ND (ND denotes below the limit of quantitation using the HPLC method detailed herein. In this case, ND means less than 0.1% by wt.)"
same,"4-Androsten-16-alpha-ol-3,17-dione (%)",[3],0.00-0.20%
same,6B-Hydroxy-testosterone (%),[3],0.00-0.20%
same,Epi-Testosterone (%),[3],0.00-0.50%
same,Total Unknown Impurities (%),"HME composition, granulation fluid Aqueous Ethanol (50:50 water/ethanol)",0.00-0.75%
same,"4-Androsten-16-alpha-ol-3,17-dione (%)",[4],0.10-0.50%
same,6B-Hydroxy-testosterone (%),[4],0.10-0.50%
same,Epi-Testosterone (%),[4],0.00-0.50%
same,Total Unknown Impurities (%),[4],0.50-1.00%
